Reference: US5891877A, “Pharmaceutical compounds” (Xenova Limited, priority 1996, dated 1999)

Molecular target: PAI-1 (Homo sapiens, UniProt P05121)
Test: PAI-1 inhibition in the S2251 chromogenic substrate assay (PAI functional assay)
Assay type: biochemical
Details: for INHIBITION OF PAI-1 (degree of inhibition): Table 1, first part, unit assumed; for IC50: PAI-1, S2251 assay, Table 2
Procedure: In this assay, a compound is incubated with PAI-1 prior to addition to the tPA assay system. Inhibition of PAI-1 results in the production of plasmin from plasminogen. […]
Compounds of formula (A) were tested in a PAI chromogenic substrate assay. […] In turn, the plasmin cleaved the chromogenic substrate S2251 (Kabi-Vitrum) producing pNA (p-nitroaniline) which was detected scectrophotometrically at 405 nm.

PAI-1, sequence (P05121 24-402): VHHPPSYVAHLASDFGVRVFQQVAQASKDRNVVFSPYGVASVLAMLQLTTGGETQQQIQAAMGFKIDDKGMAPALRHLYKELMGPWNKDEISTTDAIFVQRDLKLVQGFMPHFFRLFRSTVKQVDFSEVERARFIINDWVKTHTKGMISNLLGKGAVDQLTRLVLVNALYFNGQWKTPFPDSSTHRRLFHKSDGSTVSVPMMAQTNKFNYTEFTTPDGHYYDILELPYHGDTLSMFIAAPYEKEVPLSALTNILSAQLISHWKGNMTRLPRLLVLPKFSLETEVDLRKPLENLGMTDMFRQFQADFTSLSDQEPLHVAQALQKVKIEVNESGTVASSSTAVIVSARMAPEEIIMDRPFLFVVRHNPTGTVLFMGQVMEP

Structure (SMILES)	INHIBITION OF PAI-1 (degree of inhibition) (25 μm) [%]	INHIBITION OF PAI-1 (degree of inhibition) (50 μm) [%]	INHIBITION OF PAI-1 (degree of inhibition) (100 μm) [%]	INHIBITION OF PAI-1 (degree of inhibition) (6.25 μm) [%]	INHIBITION OF PAI-1 (degree of inhibition) (12.5 μm) [%]	IC50 [µM]
CC(C)(C)OC(=O)n1cccc1/C=c1\[nH]c(=O)/c(=C/c2ccccc2)[nH]c1=O [Compound 1470, (3Z,6Z)-3-Benzylidene-6-(2-(1-tertbutoxycarbonyl)pyrrolyl)methylene-2,5-piperazinedione]	2	20	70	0	0	50 to 100
CC(C)(C)OC(=O)n1cc(/C=c2\[nH]c(=O)/c(=C/c3ccccc3)[nH]c2=O)c2ccccc21 [Compound 1471, (3Z,6Z)-3-Benzylidene-6-(3-(1-tert-butoxycarbonyl)indolyl)methylene-2,5-piperazinedione]	20	60	80	0	6	25 to 50
COc1ccc(/C=c2\[nH]c(=O)/c(=C/c3cn(C(=O)OC(C)(C)C)c4ccccc34)[nH]c2=O)cc1 [Compound 1506, (3Z,6Z)-3-(4-Methoxybenzylidene)-6-(3-(1-tert-butoxycarbonyl)indolyl)methylene-2,5-piperazinedione]	26	58	75	2	4	25 to 50
COc1ccc(/C=c2\[nH]c(=O)/c(=C/c3cccn3C(=O)OC(C)(C)C)[nH]c2=O)cc1 [Compound 1507, (3Z,6Z)-3-(4-Methoxybenzylidene)-6-(2-(1-tertbutoxycarbonyl)pyrrolyl)methylene-2,5-piperazinedione]	45	62	78	1	1	25 to 50

Continued, in another order:

INHIBITION OF PAI-1 (degree of inhibition) (25 μm) [%]	INHIBITION OF PAI-1 (degree of inhibition) (50 μm) [%]	INHIBITION OF PAI-1 (degree of inhibition) (100 μm) [%]	Structure (SMILES)	INHIBITION OF PAI-1 (degree of inhibition) (6.25 μm) [%]	INHIBITION OF PAI-1 (degree of inhibition) (12.5 μm) [%]	IC50 [µM]
28	52	64	COc1ccc(/C=c2\[nH]c(=O)/c(=C/c3cccs3)[nH]c2=O)cc1 [Compound 1474, (3Z,6Z)-3-(4-Methoxybenzylidene)-6-(2-thienylmethylene)-2,5-piperazinedione]			25 to 50
18	48	68	COc1ccc(/C=c2\[nH]c(=O)/c(=C/c3ccoc3)[nH]c2=O)cc1 [Compound 1476, (3Z,6Z)-3-(4-Methoxybenzylidene)-6-(3-furylmethylene)-2,5-piperazinedione]			50 to 100
1	35	58	O=c1[nH]/c(=C\c2c[nH]c3ccccc23)c(=O)[nH]/c1=C\c1ccccc1 [Compound 1509, (3Z,6Z)-3-Benzylidene-6-(3-indolylmethylene)-2,5-piperazinedione]	1	1	50 to 100
9	41	75	O=c1[nH]/c(=C\c2c(Cl)cccc2Cl)c(=O)[nH]/c1=C\c1ccoc1 [Compound 1542, (3Z,6Z)-3-(2,6-Dichlorobenzylidene)-6-(3-furylmethylene)-2,5-piperazinedione]	1	1	50 to 100
39	64	87	COc1ccc(/C=c2\[nH]c(=O)/c(=C/c3c[nH]c4ccccc34)[nH]c2=O)cc1 [Compound 1545, (3Z,6Z)-3-(3-Indolylmethylene)-6-(4-methoxybenzylidene)-2,5-piperazinedione]	1	5	
